Measured values reported in patent US10870639B2, “Pyrimidine compounds and pharmaceutical compositions for preventing or treating cancers including the same” (HANMI PHARM. CO., LTD., priority 2018, dated 2020).

Assays:
[1] = Microsomal stability, human liver microsomes; assay type: in vitro ADME; details: residual amount % after 1 hour, 37° C., 5 μM, 1 mg/ml microsomes, NADPH regenerating system
Procedure: To confirm the reactivity of the test substances with intra-hepatic CYP450 enzymes, 5 μM test substances and 1 mg/ml human liver microsomes were incubated for 1 hour at a temperature of 37° C. in the presence of an NADPH regenerating system. After 1 hour, acetonitrile was added to terminate the reaction, and the supernatant obtained by centrifugation was analyzed by HPLC. The remaining amount % was calculated using the following equation using the value of the reacted sample for 1 hour relative to the value of the 0-minute sample as the peak value obtained as an analysis result. (Peak value of the sample reacted for 1 hour/peak value of the sample at 0 minutes)×100=residual amount %

[2] = Microsomal stability, mice microsomes; assay type: in vitro ADME; details: residual amount % after 1 hour, 37° C., 5 μM, NADPH regenerating system
MOLM-13 = experiment: Cell growth inhibition (MTS), MOLM-13; assay type: cell-based; details: Homo sapiens, MOLM-13, 72 h, incubation three days
Procedure: (§1) The human acute myelogenous leukemia […] cell line MOLM-13 (DSMZ no. ACC 554) was incubated in RPM11640 medium supplemented with 20% heat-inactivated FBS at a temperature of 37° C. The incubated cell line was prepared in an amount of 2.0×10^4 cells/100 μL, and then plated on a 96-well plate. The RPMI1640 medium was serially diluted with the test compounds at a concentration in a range of 1 μM to 0.01 nM at a ratio of 1:10. Subsequently, incubation was performed thereon for three days. For the human acute myelogenous leukemia cell line MV-4-11 cell line (ATCC® CRL-9591™), the cells were incubated at a temperature of 37° C. in IMDM medium supplemented with 10% FBS. The incubated cell line was prepared in an amount of 2×10^4 cells/100 μL, and then plated on a 96-well plate. The IMDM medium was treated with cascade dilution of three test compounds at a concentration in a range of 1 μM to 0.01 nM at a rate of 1/10. Subsequently, incubation was performed thereon for three days. MTS test was performed to measure cell viability, and the growth inhibition (GI50) value of the cell line was calculated using GraphPad Prism software.

SYK = SYK (Homo sapiens (Human), UniProt P43405); experiment: z-LYTE kinase assay, SYK; assay type: biochemical; details: compound concentration 100 nM
Procedure: The SYK inhibitory activity of the compounds was evaluated based on z-LYTE technology developed by Thermo Fisher Scientific Inc. According to this evaluation method, signals of the fluorescence of FRET-peptides are measured, wherein fluorescence of a FRET-peptide which is phosphorylated by the […] and fluorescence of a non-phosphorylated peptide are measured to identify an activity with respect to kinase. […] The background signal was measured in the absence of proteins; a non-inhibitory signal was measured only when the solvent (1% DMSO) was added; and an evaluation compound was used at a concentration of 100 nM to calculate the SYK inhibitory activity of the evaluation compound as a percentage (%).

VEGFR2 (KDR) = VEGFR2 (KDR) (Homo sapiens (Human), UniProt P35968); experiment: z-LYTE kinase assay, VEGFR2; assay type: biochemical; details: compound concentration 100 nM
MV-4-11 = experiment: Cell growth inhibition (MTS), MV-4-11; assay type: cell-based; details: Homo sapiens, MV4-11, 72 h, incubation three days
Procedure: as §1

FLT3 ITD = FLT3 ITD (Homo sapiens, UniProt P36888, ITD); experiment: LanthaScreen kinase binding assay, FLT3 ITD
Sequence of FLT3 ITD (P36888 whole entry, looked up, change not shown): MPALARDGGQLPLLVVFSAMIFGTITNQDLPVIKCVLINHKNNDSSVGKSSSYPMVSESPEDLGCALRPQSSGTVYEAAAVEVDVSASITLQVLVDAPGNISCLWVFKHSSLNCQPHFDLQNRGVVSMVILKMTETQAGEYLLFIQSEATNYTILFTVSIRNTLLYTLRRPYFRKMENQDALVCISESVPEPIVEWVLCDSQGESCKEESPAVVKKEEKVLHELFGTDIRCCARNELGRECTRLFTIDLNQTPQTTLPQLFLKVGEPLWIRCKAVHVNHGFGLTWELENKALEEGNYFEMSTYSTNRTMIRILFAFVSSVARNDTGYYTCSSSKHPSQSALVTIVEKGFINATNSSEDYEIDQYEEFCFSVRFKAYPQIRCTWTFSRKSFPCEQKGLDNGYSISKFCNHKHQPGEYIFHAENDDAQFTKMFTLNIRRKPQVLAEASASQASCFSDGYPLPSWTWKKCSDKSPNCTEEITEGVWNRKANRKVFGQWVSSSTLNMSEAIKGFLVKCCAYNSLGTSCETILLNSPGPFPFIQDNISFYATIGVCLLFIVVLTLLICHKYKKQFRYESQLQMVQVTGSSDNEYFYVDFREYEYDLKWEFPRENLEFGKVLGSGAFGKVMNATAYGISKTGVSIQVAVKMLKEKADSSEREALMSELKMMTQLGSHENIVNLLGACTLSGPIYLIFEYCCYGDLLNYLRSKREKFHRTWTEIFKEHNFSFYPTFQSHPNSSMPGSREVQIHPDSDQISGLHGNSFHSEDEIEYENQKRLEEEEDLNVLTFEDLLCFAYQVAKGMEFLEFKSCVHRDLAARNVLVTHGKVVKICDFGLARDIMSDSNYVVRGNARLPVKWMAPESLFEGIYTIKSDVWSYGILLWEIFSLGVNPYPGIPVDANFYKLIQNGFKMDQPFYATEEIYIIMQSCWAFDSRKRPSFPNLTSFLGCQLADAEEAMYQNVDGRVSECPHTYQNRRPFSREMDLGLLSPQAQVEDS
Procedure: The inhibitory activity of some of the compounds described above against FLT3-ITD, FLT3 wild type (WT), VEGFR2 (KDR), and SYK kinase was measured.
This experiment was carried out on a 384-well plate in conditions including 50 mM HEPES pH 7.5, 0.01% BRIJ-35, 10 mM MgCl2, 1 mM EGTA, and 1% DMSO.

Sequence of VEGFR2 (KDR) (P35968 20-1356): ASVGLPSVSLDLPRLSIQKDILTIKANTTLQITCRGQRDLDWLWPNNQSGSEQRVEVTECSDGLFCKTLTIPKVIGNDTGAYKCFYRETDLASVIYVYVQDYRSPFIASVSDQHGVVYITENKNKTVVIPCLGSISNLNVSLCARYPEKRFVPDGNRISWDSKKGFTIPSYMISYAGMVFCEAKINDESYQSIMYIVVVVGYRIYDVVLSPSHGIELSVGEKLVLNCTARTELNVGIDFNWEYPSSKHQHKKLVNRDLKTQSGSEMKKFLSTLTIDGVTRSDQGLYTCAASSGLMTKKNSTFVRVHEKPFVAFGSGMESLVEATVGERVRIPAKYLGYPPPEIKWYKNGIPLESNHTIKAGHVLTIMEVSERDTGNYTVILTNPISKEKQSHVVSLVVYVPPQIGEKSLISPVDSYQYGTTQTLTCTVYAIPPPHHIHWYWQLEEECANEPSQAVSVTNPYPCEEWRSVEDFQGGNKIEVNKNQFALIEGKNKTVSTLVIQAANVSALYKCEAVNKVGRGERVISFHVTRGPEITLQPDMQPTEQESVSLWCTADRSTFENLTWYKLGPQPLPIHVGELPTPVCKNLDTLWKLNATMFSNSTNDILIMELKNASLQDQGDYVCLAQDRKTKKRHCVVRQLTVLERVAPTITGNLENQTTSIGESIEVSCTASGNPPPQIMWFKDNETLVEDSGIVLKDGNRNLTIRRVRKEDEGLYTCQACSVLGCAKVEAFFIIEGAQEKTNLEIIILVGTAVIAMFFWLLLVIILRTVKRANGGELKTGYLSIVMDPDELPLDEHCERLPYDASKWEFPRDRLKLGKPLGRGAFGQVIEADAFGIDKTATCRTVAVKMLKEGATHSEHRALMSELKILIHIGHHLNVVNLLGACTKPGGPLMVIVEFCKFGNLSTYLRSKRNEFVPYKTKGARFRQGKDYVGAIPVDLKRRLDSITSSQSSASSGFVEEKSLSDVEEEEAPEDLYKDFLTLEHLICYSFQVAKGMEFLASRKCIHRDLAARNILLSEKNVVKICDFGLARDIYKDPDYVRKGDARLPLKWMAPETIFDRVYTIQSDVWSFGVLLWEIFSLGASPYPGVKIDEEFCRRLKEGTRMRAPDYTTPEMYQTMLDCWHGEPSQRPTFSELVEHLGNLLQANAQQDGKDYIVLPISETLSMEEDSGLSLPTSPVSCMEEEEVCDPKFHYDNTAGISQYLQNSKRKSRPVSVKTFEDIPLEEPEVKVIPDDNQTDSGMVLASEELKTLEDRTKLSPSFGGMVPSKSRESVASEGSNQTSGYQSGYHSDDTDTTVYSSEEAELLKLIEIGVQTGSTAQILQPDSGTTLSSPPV

| SMILES | Human microsomal stability (%) [1] [%] | Mice microsomal stability (%) [2] [%] | GI50 (MOLM-13) [nM] | inhibition at 0.1 µM (SYK) [%] | inhibition at 0.1 µM (VEGFR2 (KDR)) [%] | GI50 (MV-4-11) [nM] | IC50 (FLT3 ITD) [nM] |
| --- | --- | --- | --- | --- | --- | --- | --- |
| Cc1ccc2c(-c3nc(Nc4cc(CN5C[C@@H](C)NC6(CC6)C5)cc(C5CC5)c4)ncc3Cl)c[nH]c2c1 [Example 27, (R)-5-chloro-N-(3-cyclopropyl-5-((5-methyl-4,7-diazaspiro[2.5]octan-7-yl)methyl)phenyl)-4-(6-methyl-1H-indole-3-yl)pyrimidine-2-amine] | 72 | 69 | – | – | – | – | – |
| Cc1ccc2c(-c3nc(Nc4cc(CN5C[C@@H](C)N(CCO)[C@@H](C)C5)cc(C5CC5)c4)ncc3Cl)c[nH]c2c1 [Example 5, 2-((2R,6S)-4-(3-((5-chloro-4-(6-methyl-1H-indole-3-yl)pyrimidine-2-yl)amino)-5-cyclopropylbenzyl)-2,6-dimethylpiperazine-1-yl)ethane-1-ol] | – | – | 0.8 | 78 | 71 | 0.5 | 7.2 |
| CCN(CC)C1CCN(c2cc(Nc3ncc(Cl)c(-c4c[nH]c5cc(C)ccc45)n3)cc(C3CC3)c2)CC1 [Control Compound 6, reference compound] | 49 | 29 | – | – | – | – | – |
| Cc1ccc2c(-c3nc(Nc4cc(CN5C[C@@H](C)N[C@@H](C)C5)cc(C5CC5)c4)ncc3Cl)c[nH]c2c1 [Example 8, 5-chloro-N-(3-cyclopropyl-5-(((3R,5S)-3,5-dimethylpiperazine-1-yl)methyl)phenyl)-4-(6-methyl-1H-indole-3-yl)pyrimidine-2-amine] | – | – | 5.2 | 95 | 100 | 1.3 | – |
| C[C@@H]1CN(Cc2cc(Nc3ncc(Cl)c(-c4c[nH]c5cc(F)ccc45)n3)cc(C3CC3)c2)C[C@H](C)N1 [Example 1, 5-chloro-N-(3-cyclopropyl-5-(((3R,5S)-3,5-dimethylpiperazine-1-yl)methyl)phenyl)-4-(6-fluoro-1H-indole-3-yl)pyrimidine-2-amine] | – | – | 4 | 73 | 95 | 1.2 | – |
